This passage reports inhibition results from patent US11230541B2, “Heterocyclic compound” (Takeda Pharmaceutical Company Limited, priority 2017, dated 2022).

Structures are written as SMILES.

For this test, the target named is T1, NMDA receptor composed of four subunits including 2 sets of heterodimers of NR1 and NR2B (Homo sapiens, UniProt Q13224).
T1 construct: host or cells: HEK293 (tetracycline-induced expression)
Kind of test: NR2B Ca2+ influx assay (FLIPR, Fluo-4) in HEK293 cells expressing human GRIN1 and GRIN2B. Type of test: cell-based. As to conditions: HEK293, 10 μM final compound concentration, glutamic acid/glycine-induced Ca2+ influx, read-out: inhibitory rate (10 μM compound concentration). The method, boiled down: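 Inhibition rate was calculated from 5-min cumulative Fluo-4 signal (FLIPR, 3-s reads), using agonist-free buffer wells as 100% inhibition. Compound, 10 μM final, was applied 15 min before adding buffer with 30 μM glutamic acid and glycine to HEK293 cells with tetracycline-induced human NR1/NR2B, in HEPES pH 7.2 with 1.8 mM CaCl2.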

T1 sequence (Q13224 27-1484, other chains not shown): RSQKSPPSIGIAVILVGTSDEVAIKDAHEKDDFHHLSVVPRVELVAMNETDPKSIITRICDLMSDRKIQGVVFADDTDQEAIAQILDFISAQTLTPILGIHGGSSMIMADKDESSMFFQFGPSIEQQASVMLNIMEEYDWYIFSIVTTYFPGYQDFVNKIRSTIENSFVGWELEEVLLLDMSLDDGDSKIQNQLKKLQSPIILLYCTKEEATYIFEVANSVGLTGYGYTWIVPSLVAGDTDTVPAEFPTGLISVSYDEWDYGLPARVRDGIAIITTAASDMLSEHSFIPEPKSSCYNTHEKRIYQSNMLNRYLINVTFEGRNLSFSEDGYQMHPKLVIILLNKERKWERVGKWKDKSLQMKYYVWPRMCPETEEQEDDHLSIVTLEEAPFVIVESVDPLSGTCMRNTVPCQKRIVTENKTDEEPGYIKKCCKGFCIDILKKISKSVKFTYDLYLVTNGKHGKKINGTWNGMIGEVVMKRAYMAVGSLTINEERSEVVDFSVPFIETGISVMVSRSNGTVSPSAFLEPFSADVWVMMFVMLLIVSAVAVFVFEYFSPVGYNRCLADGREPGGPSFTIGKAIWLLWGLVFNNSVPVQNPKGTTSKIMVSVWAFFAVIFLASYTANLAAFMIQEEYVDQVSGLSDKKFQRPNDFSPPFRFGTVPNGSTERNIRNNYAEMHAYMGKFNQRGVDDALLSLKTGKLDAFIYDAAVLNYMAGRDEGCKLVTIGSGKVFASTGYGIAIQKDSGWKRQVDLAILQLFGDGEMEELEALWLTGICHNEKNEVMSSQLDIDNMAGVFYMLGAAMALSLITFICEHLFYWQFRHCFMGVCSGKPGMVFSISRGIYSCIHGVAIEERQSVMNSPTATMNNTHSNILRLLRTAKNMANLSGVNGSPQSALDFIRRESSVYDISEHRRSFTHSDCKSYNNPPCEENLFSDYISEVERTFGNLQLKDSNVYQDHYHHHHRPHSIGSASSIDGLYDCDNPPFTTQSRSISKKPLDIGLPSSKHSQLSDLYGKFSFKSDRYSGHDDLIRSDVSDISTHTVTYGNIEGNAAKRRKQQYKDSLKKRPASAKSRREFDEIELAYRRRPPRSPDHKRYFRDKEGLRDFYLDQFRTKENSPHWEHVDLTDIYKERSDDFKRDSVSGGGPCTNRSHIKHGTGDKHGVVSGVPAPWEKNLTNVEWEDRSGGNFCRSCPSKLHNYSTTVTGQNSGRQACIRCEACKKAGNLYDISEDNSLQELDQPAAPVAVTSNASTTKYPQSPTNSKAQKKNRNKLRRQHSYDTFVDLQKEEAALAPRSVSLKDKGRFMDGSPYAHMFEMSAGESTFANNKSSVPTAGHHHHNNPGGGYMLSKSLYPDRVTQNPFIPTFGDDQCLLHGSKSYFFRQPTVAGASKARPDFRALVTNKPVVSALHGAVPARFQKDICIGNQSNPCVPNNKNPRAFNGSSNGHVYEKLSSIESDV

As for `Cn1nnc2cccc(CNC(=O)c3ccc(OC(F)(F)F)c(F)c3)c21` [Example 274, 3-fluoro-N-[(1-methyl-1H-benzotriazol-7-yl)methyl]-4-(trifluoromethoxy)-benzamide], the inhibition at 10 µM worked out at 93%.

Regarding `CCOc1ccc2ncn(C)c2c1CNC(=O)c1cc(F)c(OC)c(F)c1` [Example 127, N-((6-ethoxy-1-methyl-1H-benzimidazol-7-yl)methyl)-3,5-difluoro-4-methoxybenzamide], the inhibition at 10 µM was 92%.

On to `COc1ccc2nc(C)n(C)c2c1CNC(=O)c1ccc(Cl)c(F)c1` [Example 248, 4-chloro-3-fluoro-N-((6-methoxy-1,2-dimethyl-1H-benzimidazol-7-yl)methyl)benzamide], for which the inhibition at 10 µM was found to be 64%.

For `COc1ccc2ncn(C)c2c1CNC(=O)Nc1cc(F)c(F)c(F)c1` [Example 220, 1-((6-methoxy-1-methyl-lH-benzimidazol-7-yl)methyl)-3-(3,4,5-trifluorophenyl)urea], the inhibition at 10 µM is 87%.

In the case of `COc1c(F)cc(C(=O)NCc2c(C3CC3)ccc3[nH]ncc23)cc1F` [Example 17, N-((5-cyclopropyl-1H-indazol-4-yl)methyl)-3,5-difluoro-4-methoxybenzamide], the inhibition at 10 µM was determined as 93%.

Consider `Cc1ccc2ncn(C)c2c1CNC(=O)c1ccc(C(F)F)cc1` [Example 157, 4-(difluoromethyl)-N-((1,6-dimethyl-1H-benzimidazol-7-yl)methyl)benzamide], for which the inhibition at 10 µM was 85%.

As for `COc1ccc(C(=O)NCc2c(OC)ccc3nc(C)n(C)c23)cc1F` [Example 243, 3-fluoro-4-methoxy-N-((6-methoxy-1,2-dimethyl-lH-benzimidazol-7-yl)methyl)benzamide], the inhibition at 10 µM is 69%.

Turning to `Cc1ccc2nn(C)cc2c1CNC(=O)c1ccc(OC(F)(F)F)cc1` [Example 1, N-((2,5-dimethyl-2H-indazol-4-yl)methyl)-4-(trifluoromethoxy)benzamide], the inhibition at 10 µM was 82%.

Take `O=C(NCc1cccc2[nH]ncc12)c1ccc(OC(F)F)c(Cl)c1` [Example 182, 3-chloro-4-(difluoromethoxy)-N-(1H-indazol-4-ylmethyl)benzamide]: the inhibition at 10 µM came to 97%.

For the compound `COc1ccc2ncn(C)c2c1CNC(=O)c1cnc(OC)c(Cl)c1` [Example 57, 5-chloro-6-methoxy-N-((6-methoxy-1-methyl-1H-benzimidazol-7-yl)methyl)nicotinamide], the inhibition at 10 µM turned out to be 91%.

With `COc1ccc2ncn(C)c2c1CNC(=O)Nc1ccc(C)cc1` [Example 256, 1-((6-methoxy-1-methyl-1H-benzimidazol-7-yl)methyl)-3-(4-methylphenyl)urea], the inhibition at 10 µM was 90%.

For `Cc1cc(C(=O)NCc2c(C3CC3)ccc3[nH]ncc23)ccc1F` [Example 75, N-((5-cyclopropyl-1H-indazol-4-yl)methyl)-4-fluoro-3-methyl-benzamide], the inhibition at 10 µM amounted to 92%.

On to `O=C(NCc1c(C2CC2)ccc2[nH]ncc12)c1cc(F)c(Cl)c(F)c1` [Example 90, 4-chloro-N-((5-cyclo-propyl-1H-indazol-4-yl)methyl)-3,5-difluorobenzamide], for which the inhibition at 10 µM stood at 94%.

Take `O=C(NCc1c(C2CC2)ccc2[nH]ncc12)c1cc(F)c(OC(F)F)c(F)c1` [Example 153, N-((5-cyclopropyl-1H-indazol-4-yl)methyl)-4-(difluoromethoxy)-3,5-difluorobenzamide]: the inhibition at 10 µM amounted to 90%.

Consider `O=C(NCc1c(C2CC2)ccc2[nH]ncc12)c1csc(C(F)F)c1` [Example 154, N-((5-cyclopropyl-1H-indazol-4-yl)methyl)-5-(difluoromethyl)-thiophene-3-carboxamide], for which the inhibition at 10 µM came to 91%.

For the compound `O=C(NCc1cccc2[nH]ncc12)c1ccc(OC(F)F)c(F)c1` [Example 192, 4-(difluoromethoxy)-3-fluoro-N-(1H-indazol-4-ylmethyl)benzamide], the inhibition at 10 µM turned out to be 94%.

In the case of `COc1ncc(C(=O)NCc2c(C)ccc3ncn(C)c23)cc1F` [Example 19, N-((1,6-dimethyl-1H-benzimidazol-7-yl)-methyl)-5-fluoro-6-methoxynicotinamide], the inhibition at 10 µM stood at 83%.

As to `O=C(NCc1c(C2CC2)ccc2[nH]ncc12)c1cnc(OC(F)F)c(F)c1` [Example 105, N-((5-cyclopropyl-1H-indazol-4-yl)methyl)-6-(difluoromethoxy)-5-fluoronicotinamide], the inhibition at 10 µM was 93%.

Take `COc1ccc2ncn(C)c2c1CNC(=O)Nc1ccc(F)c(C(F)(F)F)c1` [Example 267, 1-(4-fluoro-3-(trifluoromethyl)-phenyl)-3-((6-methoxy-1-methyl-lH-benzimidazol-7-yl)methyl)urea]: the inhibition at 10 µM was found to be 74%.

`Cc1ccc2ncn(C)c2c1CNC(=O)c1ccc(OC(F)(F)F)cc1` [Example 152, N-((1,6-dimethyl-1H-benzimidazol-7-yl)methyl)-4-(trifluoromethoxy)benzamide]: the inhibition at 10 µM was 91%.

In the case of `Cc1n[nH]c2cccc(CNC(=O)c3ccc(OC(F)(F)F)c(F)c3)c12` [Example 269, 3-fluoro-N-((3-methyl-1H-indazol-4-yl)methyl)-4-(trifluoromethoxy)-benzamide], the inhibition at 10 µM turned out to be 87%.

With `COc1ccc2ncn(C)c2c1CNC(=O)c1ccc(C(F)F)cc1` [Example 123, 4-(difluoromethyl)-N-((6-methoxy-1-methyl-1H-benzimidazol-7-yl)methyl)benzamide], the inhibition at 10 µM came to 88%.

Take `COc1ccc2ncn(C)c2c1CNC(=O)c1cc(F)c(Cl)c(F)c1` [Example 15, 4-chloro-3,5-difluoro-N-((6-methoxy-1-methyl-1H-benzimidazol-7-yl)methyl)benzamide]: the inhibition at 10 µM is 95%.

Take `Cc1n[nH]c2cccc(CNC(=O)c3cnc(OC(F)F)c(F)c3)c12` [Example 271, 6-(difluoromethoxy)-5-fluoro-N-((3-methyl-1H-indazol-4-yl)methyl)nicotinamide]: the inhibition at 10 µM stood at 82%.

In the case of `COCc1ccc2ncn(C)c2c1CNC(=O)c1cnc(OC(F)F)c(F)c1` [Example 281, 6-(difluoromethoxy)-5-fluoro-N-{[6-(methoxymethyl)-1-methyl-lH-benzimidazol-7-yl]methyl}pyridine-3-carboxamide], the inhibition at 10 µM is 82%.

For the compound `COc1c(F)cc(C(=O)NCc2c(C)ccc3[nH]nnc23)cc1F` [Example 197, 3,5-difluoro-4-methoxy-N-((5-methyl-1H-benzotriazol-4-yl)methyl)benzamide], the inhibition at 10 µM worked out at 96%.

`COc1ccc2ncn(C)c2c1CNC(=O)c1ccc(C)c(Cl)c1` [Example 38, 3-chloro-N-((6-methoxy-1-methyl-1H-benzimidazol-7-yl)-methyl)-4-methylbenzamide]: the inhibition at 10 µM amounted to 91%.

Turning to `O=C(NCc1c(C2CC2)ccc2[nH]ncc12)c1ccc(OC(F)(F)F)cc1` [Example 62, N-((5-cyclopropyl-1H-indazol-4-yl)methyl)-4-(trifluoromethoxy)-benzamide], the inhibition at 10 µM amounted to 94%.

Turning to `COc1ccc2ncn(C)c2c1CNC(=O)c1ccc(OC(F)(F)F)cc1` [Example 12, N-((6-methoxy-1-methyl-1H-benzimidazol-7-yl)methyl)-4-(trifluoromethoxy)benzamide], the inhibition at 10 µM amounted to 94%.

As to `Cc1ccc(C(=O)NCc2c(C3CC3)ccc3[nH]ncc23)cc1C(F)(F)F` [Example 84, N-((5-cyclopropyl-1H-indazol-4-yl)methyl)-4-methyl-3-(trifluoro-methyl)benzamide], the inhibition at 10 µM is 91%.

Consider `COc1ccc2ncn(C)c2c1CNC(=O)Nc1ccc(F)c(C)c1` [Example 217, 1-(4-fluoro-3-methylphenyl)-3-((6-methoxy-1-methyl-1H-benzimidazol-7-yl)methyl)urea], for which the inhibition at 10 µM came out at 82%.

For the compound `O=C(NCc1c(C2CC2)ccc2[nH]ncc12)c1ccc(C(F)F)c(F)c1` [Example 118, N-((5-cyclopropyl-1H-indazol-4-yl)methyl)-4-(difluoromethyl)-3-fluorobenzamide], the inhibition at 10 µM was found to be 94%.

As to `Cc1ccc(C(=O)NCc2c(C)ccc3[nH]nnc23)cc1F` [Example 200, 3-fluoro-4-methyl-N-((5-methyl-1H-benzotriazol-4-yl)methyl)benzamide], the inhibition at 10 µM was found to be 85%.

`O=C(NCc1c(C2CC2)ccc2[nH]ncc12)c1ccc(Cl)cc1` [Example 102, 4-chloro-N-((5-cyclopropyl-1H-indazol-yl)methyl)benzamide]: the inhibition at 10 µM worked out at 92%.

On to `Cc1ccc(C(=O)NCc2c(C3CC3)ccc3[nH]ncc23)s1` [Example 64, N-((5-cyclopropyl-1H-indazol-4-yl)methyl)-methylthiophene-2-carboxamide], for which the inhibition at 10 µM is 91%.

For `O=C(NCc1cccc2[nH]ncc12)c1ccc(OC(F)(F)F)c(F)c1` [Example 179, 3-fluoro-N-(1H-indazol-4-ylmethyl)-4-(trifluoromethoxy)-benzamide], the inhibition at 10 µM came out at 96%.

On to `Cn1nnc2cccc(CNC(=O)c3cnc(OC(F)F)c(F)c3)c21` [Example 275, 6-(difluoromethoxy)-5-fluoro-N-[(1-methyl-1H-benzotriazol-7-yl)methyl]pyridine-3-carboxamide], for which the inhibition at 10 µM worked out at 82%.

Regarding `Cc1ccc(C(=O)NCc2c(C3CC3)ccc3[nH]ncc23)cc1` [Example 99, N-((5-cyclopropyl-1H-indazol-4-yl)methyl)-methylbenzamide], the inhibition at 10 µM stood at 91%.

Consider `Cc1cc(C(=O)NCc2c(C3CC3)ccc3[nH]ncc23)cs1` [Example 66, N-((5-cyclopropyl-1H-indazol-4-yl)methyl)-methylthiophene-3-carboxamide], for which the inhibition at 10 µM stood at 91%.
